Laboratory results from US7005447B2, “Food product comprising hydroxymatairesinol” (Hormos Nutraceutical Oy Ltd., priority 1999, dated 2006).

What was measured:
[1] = Superoxide anion scavenging (xanthine-xanthine oxidase system, chemiluminescence); format: biochemical; settings: read-out: Superoxide anion scavenging, IC-50
Experimental: Superoxide anion scavenging method was based on the superoxide anion produced in controlled conditions by xanthine-xanthine oxidase system and detection of the generated reactive oxygen species by luminometer (Ahotupa et al., 1997). The ability of test compounds to decrease the chemiluminescence was evaluated. IC-50 concentration (concentration which prevented the chemiluminescence by 50%) was calculated.

[2] = target: T1, aromatase (Homo sapiens, UniProt P11511); assay: Aromatase inhibiting capacity in JEG-3 cells (3H-17β-estradiol formation from 3H-androstenedione); format: cell-based; settings: 4 h incubation, FIG. 1
T1 construct: 800 μl cell suspension (1 million cells); endogenous in cells; host or cells: JEG-3 human choriocarcinoma cells
T1 sequence (P11511 1-503): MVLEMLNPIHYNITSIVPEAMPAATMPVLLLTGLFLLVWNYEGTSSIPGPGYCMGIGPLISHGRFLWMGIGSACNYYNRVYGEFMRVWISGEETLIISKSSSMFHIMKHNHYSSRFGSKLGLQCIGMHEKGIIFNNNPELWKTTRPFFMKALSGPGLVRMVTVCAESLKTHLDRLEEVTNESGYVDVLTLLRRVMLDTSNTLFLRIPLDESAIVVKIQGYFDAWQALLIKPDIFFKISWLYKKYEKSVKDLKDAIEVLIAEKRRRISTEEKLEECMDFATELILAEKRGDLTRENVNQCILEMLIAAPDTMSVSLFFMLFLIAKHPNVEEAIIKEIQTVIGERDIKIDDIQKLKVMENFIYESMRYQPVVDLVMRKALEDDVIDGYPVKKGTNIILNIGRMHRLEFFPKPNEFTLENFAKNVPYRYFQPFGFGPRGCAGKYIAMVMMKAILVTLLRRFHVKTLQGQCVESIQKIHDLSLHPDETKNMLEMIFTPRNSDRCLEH
Experimental: The effects of HMR and structurally related lignans (enterolactone, enterodiol and 7-hydroxyenterolactone) were studied on formation of ^3H-17β-estradiol from ^3H-andostenedione in JEG-3 cells, human choriocarcinoma cell line. […] Cells were maintained in DMEM containing 10% fetal calf serum (FCS). The incubation mixture contained 50 μl ^3H-androst-4-ene, 3,17-dione (0.5 nM), 50 μl unlabelled androstenedione (0.5 nM), 100 μl test compounds (10 mM) and 800 μl cell suspension (1 million cells). After the incubation for 4 h, unlabelled carriers (androstenedione, testosterone, 17β-estradiol and estrone) were added. The steroids were extracted twice with 3.0 ml dichloromethane. […] The column system consisted of a guard column followed by a C18 150×3.9 mm ID analytical column (Technopak 10 C18 HPLC Technology; Wellington House, Cheshire, UK). The mobile phase was acetonitrile/water (35/65) and the flow rate was 1.2 ml/min. For in-line detection of the radioactive metabolites, the eluent of the HPCL column was continuously mixed with liquid scintillant and then monitored with in-line radioactivity detector.

[3] = Analysis of metabolites from rat urine after different doses of HMR (GC-MS); format: in vivo; settings: 24 hour urine
Experimental: Ten Sprague—Dawley male rats (age 4 month) were used to study the metabolism of HMR in vivo. Animals were housed in pairs with 12 h light:dark cycle and had free access to water and soy-free basal diet (SDS, Whitham Essex, England) during the metabolism study.
Rats were cavaged with HMR dissolved in 10% ethanol in PEG in doses 3, 15, 25 and 50 mg/kg body weight once a day for two days. After second cavaging the 24 hour urine was collected in metabolic cages in collection jars containing 120 μl 0.56 M ascorbic acid and 120 μl 0.15 M Na-azide as preservatives. The centrifuged urine volumes were measured and stored in −20° C. For pretreatment 750 μl 0.2 M acetate buffer (pH 4.0±0.1) was added to 3.0 ml thawed urine aliquots. Sep-Pak C18 columns (100 mg silica based resin/column) were used for urine extractions. Columns were preconditioned with 3.0 ml H2O, 3.0 ml methanol and 3.0 ml acetate buffer. After urine had filtered through the column and washed with 3.0 ml of acetate buffer polyphenolics were eluted with 3.0 ml methanol. The eluate was evaporated to dryness under nitrogen in +45° C. water bath and dryed residues were redissolved in 3.0 ml of 0.2 M acetate buffer. 30 μl Helix pomatia enzyme mix was added and the solutions were incubated in +37° C. to hydrolyze both glucuronides and sulfates. 300 μl of flavone stock solution (100 μg/ml in EtOH) was added into hydrolyzed samples. The samples were extracted in C-18 columns and evaporated to dryness as described above and stored in −20° C. until analyzed with GC-MS.
The evaporated urine samples were dissolved in pyridine, and silylated by adding BSTFA:TMCS (10:1) silylation reagent. The GC-MS analyses of the silylated samples were performed with an HP 6890-5973 GC-MS instrument. The GC column was an HP-1 crosslinked methyl polysiloxane column (15 m×0.25 mm i.d., 0.25 μm film thickness). Helium was used as carrier gas at a flow of 1 ml/min. […] The quantitative calculations were based on uncorrected peak areas of target components relative to the internal standard.

[4] = test system: low density lipoprotein (LDL) oxidation; assay: Inhibition of LDL oxidation (CuCl2-induced, absorbance at 234 nm); format: biochemical; settings: CuCl2, 3 hrs at +37° C.; read-out: Inhibition of LDL oxidation, IC-50
Experimental: Inhibition of LDL oxidation was estimated as described by Ahotupa et al, 1996. Shortly: LDL was isolated by precipitation with buffered heparin. After resuspendation in phosphate buffer, 20 mM CuCl2 was added and the mixture was incubated for 3 hrs at +37° C. After this, LDL lipids were extracted with chloroform-methanol, dried under nitrogen, redissolved in cyclohexane and analyzed spectrophotometrically at 234 nm. The intensity of absorbance is indicative of LDL oxidation. To test the ability of different compounds to prevent LDL oxidation, the compounds were added to the incubation mixture prior addition of CuCl2. Possible interference of test compounds with the assay procedure was excluded by measuring the absorption at 234 nm before and after the incubation period.

In the case of COc1cc(CC2C(=O)OCC2C(O)c2ccc(O)c(OC)c2)ccc1O (stereo not drawn) [HMR, hydroxymatairesinol], the IC50 [1] is reported as 5.6 µM, the “Inhibition of aromatization (3H-17β-estradiol formation from 3H-androstenedione)” value [2] is reported as “no inhibitory effects” and the “Main excreting metabolite in urine” value ([3]; male rats, 3, 15, 25 and 50 mg/kg once a day for two days, FIG. 5) is reported as “enterolactone”. The “Relation between doses of HMR and amounts of urinary enterolactone” value ([3]; male rats, 3 to 50 mg/kg) was “linear correlation”, the “Unmetabolized HMR and other metabolites (enterodiol and 7-hydroxyenterolactone) found in urine” value ([3]; male rats, unchanged when daily dose increased) was “Only minute amounts” and the IC50 [4] was 2 µM.
